From ChEMBL document CHEMBL4330132, “5-Keto-3-cyano-2,4-diaminothiophenes as selective maternal embryonic leucine zipper kinase inhibitors” (Bioorg Med Chem Lett, 2019)

Tests used:
[1] = biological target: Serine/threonine-protein kinase ULK2 (Homo sapiens) (UniProt Q8IYT8); assay: Binding affinity to wild-type human partial length ULK2 (M1 to S301 residues) expressed in mammalian expression system assessed as residual binding level at 1 uM by Kinomescan method relative to control
[2] = biological target: Serine/threonine-protein kinase tousled-like 2 (Homo sapiens) (UniProt Q86UE8); assay: Binding affinity to wild-type human partial length TLK2 (E424 to N749 residues) expressed in bacterial expression system assessed as residual binding level at 1 uM by Kinomescan method relative to control
Sequence of Serine/threonine-protein kinase tousled-like 2 (Homo sapiens) (Q86UE8 whole entry, looked up, the tested form may be a part, canonical isoform): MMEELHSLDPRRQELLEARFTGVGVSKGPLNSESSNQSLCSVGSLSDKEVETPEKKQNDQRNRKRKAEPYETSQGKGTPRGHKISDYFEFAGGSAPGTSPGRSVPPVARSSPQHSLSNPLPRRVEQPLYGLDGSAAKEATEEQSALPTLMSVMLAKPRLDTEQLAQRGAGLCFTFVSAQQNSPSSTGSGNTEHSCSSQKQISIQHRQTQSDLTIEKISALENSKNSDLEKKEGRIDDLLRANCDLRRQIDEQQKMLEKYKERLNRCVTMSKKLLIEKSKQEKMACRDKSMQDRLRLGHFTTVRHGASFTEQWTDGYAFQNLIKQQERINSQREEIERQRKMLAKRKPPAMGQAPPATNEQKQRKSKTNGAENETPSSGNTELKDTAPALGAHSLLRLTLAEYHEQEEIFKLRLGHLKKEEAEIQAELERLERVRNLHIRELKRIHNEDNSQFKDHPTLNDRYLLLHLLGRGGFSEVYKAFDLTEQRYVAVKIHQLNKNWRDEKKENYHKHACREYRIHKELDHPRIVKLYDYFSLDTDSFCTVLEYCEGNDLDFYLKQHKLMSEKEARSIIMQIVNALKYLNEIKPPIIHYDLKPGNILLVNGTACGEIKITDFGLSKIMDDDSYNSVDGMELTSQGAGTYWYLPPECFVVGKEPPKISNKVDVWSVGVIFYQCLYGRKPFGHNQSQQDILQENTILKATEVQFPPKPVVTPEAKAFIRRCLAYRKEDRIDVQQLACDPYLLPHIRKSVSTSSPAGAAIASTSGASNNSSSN

[3] = biological target: Phosphatidylinositol 4,5-bisphosphate 3-kinase catalytic subunit alpha isoform (Homo sapiens) (UniProt P42336); assay: Binding affinity to wild-type human partial length PIK3CA (R108 to N1068 residues) expressed in mammalian expression system assessed as residual binding level at 1 uM by Kinomescan method relative to control
[4] = biological target: Activin receptor type-1-like (Homo sapiens) (UniProt P37023); assay: Binding affinity to wild-type human ACVRL1 (L164 to Q503 residues) expressed in bacterial expression system assessed as residual binding level at 1 uM by Kinomescan method relative to control
[5] = biological target: Mitogen-activated protein kinase 7 (Homo sapiens) (UniProt Q13164); assay: Binding affinity to wild-type human partial length ERK5 (M1 to A409 residues) expressed in bacterial expression system assessed as residual binding level at 1 uM by Kinomescan method relative to control
[6] = biological target: Mitogen-activated protein kinase kinase kinase 1 (Homo sapiens) (UniProt Q13233); assay: Binding affinity to wild-type human partial length MAP3K1 (L1202 to W1512 residues) expressed in mammalian expression system assessed as residual binding level at 1 uM by Kinomescan method relative to control
[7] = biological target: STE20-like serine/threonine-protein kinase (Homo sapiens) (UniProt Q9H2G2); assay: Binding affinity to wild-type human partial length SLK (S14 to A307 residues) expressed in bacterial expression system assessed as residual binding level at 1 uM by Kinomescan method relative to control
[8] = system: Mast/stem cell growth factor receptor Kit (Homo sapiens), P10721 [A829P]; assay: Binding affinity to human partial length KIT A829P mutant (I571 to D952 residues) expressed in mammalian expression system assessed as residual binding level at 1 uM by Kinomescan method relative to control
[9] = biological target: Serine/threonine-protein kinase SIK2 (Homo sapiens) (UniProt Q9H0K1); assay: Binding affinity to wild-type human full length SIK2 (M1 to N926 residues) expressed in bacterial expression system assessed as residual binding level at 1 uM by Kinomescan method relative to control
Sequence of Serine/threonine-protein kinase SIK2 (Homo sapiens) (Q9H0K1 whole entry, looked up, the tested form may be a part): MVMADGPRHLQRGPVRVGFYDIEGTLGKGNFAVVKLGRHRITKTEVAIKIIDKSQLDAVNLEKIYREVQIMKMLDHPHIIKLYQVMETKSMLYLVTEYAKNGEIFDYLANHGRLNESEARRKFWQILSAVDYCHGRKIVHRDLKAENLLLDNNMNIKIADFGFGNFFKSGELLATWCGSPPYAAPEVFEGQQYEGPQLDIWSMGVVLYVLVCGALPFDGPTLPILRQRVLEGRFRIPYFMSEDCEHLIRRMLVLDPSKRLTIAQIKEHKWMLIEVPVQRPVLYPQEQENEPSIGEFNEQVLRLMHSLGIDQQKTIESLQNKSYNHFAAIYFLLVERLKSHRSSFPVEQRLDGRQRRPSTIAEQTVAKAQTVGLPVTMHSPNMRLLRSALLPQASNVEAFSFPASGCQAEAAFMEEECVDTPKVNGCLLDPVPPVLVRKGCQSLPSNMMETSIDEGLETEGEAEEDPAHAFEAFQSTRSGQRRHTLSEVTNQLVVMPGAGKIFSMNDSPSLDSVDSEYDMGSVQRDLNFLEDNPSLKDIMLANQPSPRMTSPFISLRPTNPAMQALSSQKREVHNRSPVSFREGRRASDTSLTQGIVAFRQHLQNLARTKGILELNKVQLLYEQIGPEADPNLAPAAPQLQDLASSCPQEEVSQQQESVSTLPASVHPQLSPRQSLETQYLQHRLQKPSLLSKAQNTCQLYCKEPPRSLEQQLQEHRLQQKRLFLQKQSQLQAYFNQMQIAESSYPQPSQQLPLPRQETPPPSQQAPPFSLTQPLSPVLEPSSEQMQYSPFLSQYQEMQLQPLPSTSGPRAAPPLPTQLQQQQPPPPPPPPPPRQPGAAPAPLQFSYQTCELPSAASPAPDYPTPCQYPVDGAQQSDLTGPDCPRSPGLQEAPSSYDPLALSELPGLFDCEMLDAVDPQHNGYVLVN

[10] = biological target: Focal adhesion kinase 1 (Homo sapiens) (UniProt Q05397); assay: Binding affinity to wild-type human partial length FAK (D402 to R696 residues) expressed in bacterial expression system assessed as residual binding level at 1 uM by Kinomescan method relative to control
Sequence of Focal adhesion kinase 1 (Homo sapiens) (Q05397 2-1052 limits assumed): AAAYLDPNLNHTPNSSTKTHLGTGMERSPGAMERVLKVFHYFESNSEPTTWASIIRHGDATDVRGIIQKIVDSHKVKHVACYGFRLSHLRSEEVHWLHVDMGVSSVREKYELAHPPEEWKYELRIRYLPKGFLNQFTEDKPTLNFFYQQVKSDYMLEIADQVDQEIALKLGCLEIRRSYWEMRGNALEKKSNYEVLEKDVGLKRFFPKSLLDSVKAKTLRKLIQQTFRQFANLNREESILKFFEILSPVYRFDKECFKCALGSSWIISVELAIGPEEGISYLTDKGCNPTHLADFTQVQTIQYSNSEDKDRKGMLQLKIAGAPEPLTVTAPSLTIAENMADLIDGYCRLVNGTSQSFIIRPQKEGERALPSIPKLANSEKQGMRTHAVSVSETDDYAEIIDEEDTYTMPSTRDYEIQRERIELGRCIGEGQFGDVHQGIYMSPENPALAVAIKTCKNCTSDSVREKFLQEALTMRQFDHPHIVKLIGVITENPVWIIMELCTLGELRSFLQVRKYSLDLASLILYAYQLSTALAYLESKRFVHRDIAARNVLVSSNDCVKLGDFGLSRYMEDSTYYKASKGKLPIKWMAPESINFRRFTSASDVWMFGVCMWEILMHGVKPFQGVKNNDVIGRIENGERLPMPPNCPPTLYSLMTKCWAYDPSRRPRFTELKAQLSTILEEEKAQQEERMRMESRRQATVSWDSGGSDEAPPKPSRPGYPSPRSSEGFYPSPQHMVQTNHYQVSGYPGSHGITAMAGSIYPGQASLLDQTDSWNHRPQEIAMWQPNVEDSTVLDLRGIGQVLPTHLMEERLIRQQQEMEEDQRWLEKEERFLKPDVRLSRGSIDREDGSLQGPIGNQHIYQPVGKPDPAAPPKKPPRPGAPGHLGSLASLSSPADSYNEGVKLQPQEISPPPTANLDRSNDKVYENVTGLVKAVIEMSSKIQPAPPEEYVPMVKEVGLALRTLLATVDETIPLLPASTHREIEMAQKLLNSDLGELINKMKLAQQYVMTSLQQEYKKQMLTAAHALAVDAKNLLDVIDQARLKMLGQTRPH

[11] = biological target: Serine/threonine-protein kinase mTOR (Homo sapiens) (UniProt P42345); assay: Binding affinity to wild-type human partial length MTOR (L1382 to W2549 residues) expressed in mammalian expression system assessed as residual binding level at 1 uM by Kinomescan method relative to control
[12] = system: Hepatocyte growth factor receptor (Homo sapiens), P08581 [M1250T]; assay: Binding affinity to human partial length MET M1250T mutant (D1010 to S1367 residues) expressed in bacterial expression system assessed as residual binding level at 1 uM by Kinomescan method relative to control
[13] = biological target: Dual serine/threonine and tyrosine protein kinase (Homo sapiens) (UniProt Q6XUX3); assay: Binding affinity to wild-type human full length RIPK5 (M1 to T929 residues) expressed in mammalian expression system assessed as residual binding level at 1 uM by Kinomescan method relative to control
Sequence of Dual serine/threonine and tyrosine protein kinase (Homo sapiens) (Q6XUX3 whole entry, the tested form may be a part): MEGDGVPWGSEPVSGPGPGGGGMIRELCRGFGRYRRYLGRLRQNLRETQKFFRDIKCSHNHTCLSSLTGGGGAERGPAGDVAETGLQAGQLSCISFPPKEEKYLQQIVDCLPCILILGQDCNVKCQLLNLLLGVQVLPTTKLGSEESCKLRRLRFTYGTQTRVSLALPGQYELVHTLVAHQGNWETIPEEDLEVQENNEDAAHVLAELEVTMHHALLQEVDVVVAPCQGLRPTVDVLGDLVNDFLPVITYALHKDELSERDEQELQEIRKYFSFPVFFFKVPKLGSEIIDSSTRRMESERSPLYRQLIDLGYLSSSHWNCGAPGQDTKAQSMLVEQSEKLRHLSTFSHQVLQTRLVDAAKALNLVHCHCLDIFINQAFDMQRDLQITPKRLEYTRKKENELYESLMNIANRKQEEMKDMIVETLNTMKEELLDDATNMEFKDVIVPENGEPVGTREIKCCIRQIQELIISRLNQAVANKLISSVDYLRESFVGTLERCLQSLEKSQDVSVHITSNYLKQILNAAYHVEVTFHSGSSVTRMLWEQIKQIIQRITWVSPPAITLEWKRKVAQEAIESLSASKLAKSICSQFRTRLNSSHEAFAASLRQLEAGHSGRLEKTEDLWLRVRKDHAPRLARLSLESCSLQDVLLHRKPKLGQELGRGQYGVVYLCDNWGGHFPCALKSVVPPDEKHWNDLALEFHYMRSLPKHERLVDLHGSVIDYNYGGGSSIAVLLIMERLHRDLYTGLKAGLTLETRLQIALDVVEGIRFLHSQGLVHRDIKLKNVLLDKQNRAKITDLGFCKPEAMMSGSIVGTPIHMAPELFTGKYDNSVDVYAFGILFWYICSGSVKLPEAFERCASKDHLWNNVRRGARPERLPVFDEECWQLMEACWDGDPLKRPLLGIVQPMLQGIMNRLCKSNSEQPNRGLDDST

[14] = biological target: Activin receptor type-1 (Homo sapiens) (UniProt Q04771); assay: Binding affinity to wild-type human ACVR1 (C188 to C509 residues) expressed in bacterial expression system assessed as residual binding level at 1 uM by Kinomescan method relative to control
Sequence of Activin receptor type-1 (Homo sapiens) (Q04771 whole entry, the tested form may be a part): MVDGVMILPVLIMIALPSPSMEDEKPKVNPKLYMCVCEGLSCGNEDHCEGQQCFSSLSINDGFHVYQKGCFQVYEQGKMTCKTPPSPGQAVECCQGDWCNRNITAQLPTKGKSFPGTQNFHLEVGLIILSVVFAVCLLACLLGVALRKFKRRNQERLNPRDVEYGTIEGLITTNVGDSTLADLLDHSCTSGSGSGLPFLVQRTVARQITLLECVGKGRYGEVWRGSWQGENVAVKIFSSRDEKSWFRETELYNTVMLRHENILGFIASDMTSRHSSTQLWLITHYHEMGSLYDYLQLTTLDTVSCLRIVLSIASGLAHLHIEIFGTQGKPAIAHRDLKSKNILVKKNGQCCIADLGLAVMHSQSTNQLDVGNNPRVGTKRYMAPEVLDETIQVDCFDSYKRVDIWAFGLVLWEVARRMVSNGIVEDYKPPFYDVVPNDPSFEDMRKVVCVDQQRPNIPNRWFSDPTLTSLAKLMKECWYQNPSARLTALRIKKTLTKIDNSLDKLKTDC

[15] = biological target: Ribosomal protein S6 kinase alpha-6 (Homo sapiens) (UniProt Q9UK32); assay: Binding affinity to wild-type human partial length C-terminal RSK4 kinase domain 2 (I401 to Y711 residues) expressed in bacterial expression system assessed as residual binding level at 1 uM by Kinomescan method relative to control
Sequence of Ribosomal protein S6 kinase alpha-6 (Homo sapiens) (Q9UK32 whole entry, the tested form may be a part): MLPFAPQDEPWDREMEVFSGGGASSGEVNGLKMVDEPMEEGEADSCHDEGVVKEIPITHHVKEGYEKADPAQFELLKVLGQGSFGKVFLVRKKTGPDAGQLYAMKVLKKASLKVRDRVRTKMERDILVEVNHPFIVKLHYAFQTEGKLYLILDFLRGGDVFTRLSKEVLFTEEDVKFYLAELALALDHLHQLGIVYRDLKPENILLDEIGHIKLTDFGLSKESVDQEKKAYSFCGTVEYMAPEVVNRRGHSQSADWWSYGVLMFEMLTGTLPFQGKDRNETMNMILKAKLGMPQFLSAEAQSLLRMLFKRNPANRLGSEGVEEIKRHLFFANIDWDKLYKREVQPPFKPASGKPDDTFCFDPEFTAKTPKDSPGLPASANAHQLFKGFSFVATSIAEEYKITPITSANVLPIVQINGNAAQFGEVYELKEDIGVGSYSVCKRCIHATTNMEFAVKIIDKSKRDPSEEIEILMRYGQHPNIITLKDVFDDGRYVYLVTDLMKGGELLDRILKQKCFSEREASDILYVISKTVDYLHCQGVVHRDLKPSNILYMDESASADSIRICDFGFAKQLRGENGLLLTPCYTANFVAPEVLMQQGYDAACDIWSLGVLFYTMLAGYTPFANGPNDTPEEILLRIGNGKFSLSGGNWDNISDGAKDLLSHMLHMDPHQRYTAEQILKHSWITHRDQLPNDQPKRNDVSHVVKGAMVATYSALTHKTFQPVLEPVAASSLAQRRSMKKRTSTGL

[16] = biological target: Serine/threonine-protein kinase 16 (Homo sapiens) (UniProt O75716); assay: Binding affinity to wild-type human partial length STK16 (G11 to I305 residues) expressed in bacterial expression system assessed as residual binding level at 1 uM by Kinomescan method relative to control
[17] = system: Phosphatidylinositol 4,5-bisphosphate 3-kinase catalytic subunit alpha isoform (Homo sapiens), P42336 [E542K]; assay: Binding affinity to human partial length PIK3CA E542K mutant (R108 to N1068 residues) expressed in mammalian expression system assessed as residual binding level at 1 uM by Kinomescan method relative to control
[18] = system: Tyrosine-protein kinase ABL1 (Homo sapiens), P00519 [T315I]; assay: Binding affinity to human phosphorylated ABL1 T315I mutant (S229 to K512 residues) expressed in mammalian expression system assessed as residual binding level at 1 uM by Kinomescan method relative to control
[19] = biological target: Mitogen-activated protein kinase 8 (Homo sapiens) (UniProt P45983); assay: Binding affinity to wild-type human full length JNK1 (M1 to Q384 residues) expressed in mammalian expression system assessed as residual binding level at 1 uM by Kinomescan method relative to control
[20] = biological target: 5'-AMP-activated protein kinase catalytic subunit alpha-1 (Homo sapiens) (UniProt Q13131); assay: Binding affinity to wild-type human partial length AMPK alpha1 (M1 to E306 residues) expressed in bacterial expression system assessed as residual binding level at 1 uM by Kinomescan method relative to control
[21] = biological target: Inhibitor of nuclear factor kappa-B kinase subunit beta (Homo sapiens) (UniProt O14920); assay: Binding affinity to wild-type human full length IKK-beta (M1 to S756 residues) expressed in mammalian expression system assessed as residual binding level at 1 uM by Kinomescan method relative to control
[22] = biological target: Interleukin-1 receptor-associated kinase 1 (Homo sapiens) (UniProt P51617); assay: Binding affinity to wild-type human partial length IRAK1 (R194 to S712 residues) expressed in mammalian expression system assessed as residual binding level at 1 uM by Kinomescan method relative to control
[23] = biological target: NT-3 growth factor receptor (Homo sapiens) (UniProt Q16288); assay: Binding affinity to wild-type human partial length TRKC (Q531 to G825 residues) expressed in mammalian expression system assessed as residual binding level at 1 uM by Kinomescan method relative to control
[24] = biological target: STE20/SPS1-related proline-alanine-rich protein kinase (Homo sapiens) (UniProt Q9UEW8); assay: Binding affinity to wild-type human partial length STK39 (P43 to I357 residues) expressed in mammalian expression system assessed as residual binding level at 1 uM by Kinomescan method relative to control

## CC(C)Nc1sc(C(=O)c2ccc(Cl)s2)c(N)c1C#N
[1]
  Activity: 100%
[2]
  Activity: 100%
[3]
  Activity: 100%
[4]
  Activity: 100%
[5]
  Activity: 100%
[6]
  Activity: 100%
[7]
  Activity: 96%
[8]
  Activity: 66%
[9]
  Activity: 92%
[10]
  Activity: 74%
[11]
  Activity: 100%
[12]
  Activity: 78%
[13]
  Activity: 85%
[14]
  Activity: 47%
[15]
  Activity: 90%
[16]
  Activity: 85%
[17]
  Activity: 77%
[18]
  Activity: 100%
[19]
  Activity: 100%
[20]
  Activity: 70%
[21]
  Activity: 100%
[22]
  Activity: 77%
[23]
  Activity: 87%
[24]
  Activity: 72%
